The assay has as its target ATM (Homo sapiens (Human), UniProt Q13315). Briefly: ATM in Cell Western Assay (pKAP1 in etoposide-treated MCF-7 cells). The format is cell-based. The method in brief:
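Cells received compounds in a 10-dose, 3-fold series from a 1 μM final top concentration, then 100 μM etoposide, for 1 hr at 37° C. They were then fixed with paraformaldehyde and permeabilized with 0.1% Triton X-100. After immunostaining, plates were scanned on an infrared imager.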

The mark [1] stands for this setting: pKAP1 in etoposide-treated MCF-7 cells.
[2] abbreviates: MCF-7 cells, etoposide 100 μM, 1 hr, pKAP1 readout.

Molecules are shown by their SMILES. Where a name gives a salt, the structure may show the parent alone.

Sequence of ATM (Q13315 whole entry): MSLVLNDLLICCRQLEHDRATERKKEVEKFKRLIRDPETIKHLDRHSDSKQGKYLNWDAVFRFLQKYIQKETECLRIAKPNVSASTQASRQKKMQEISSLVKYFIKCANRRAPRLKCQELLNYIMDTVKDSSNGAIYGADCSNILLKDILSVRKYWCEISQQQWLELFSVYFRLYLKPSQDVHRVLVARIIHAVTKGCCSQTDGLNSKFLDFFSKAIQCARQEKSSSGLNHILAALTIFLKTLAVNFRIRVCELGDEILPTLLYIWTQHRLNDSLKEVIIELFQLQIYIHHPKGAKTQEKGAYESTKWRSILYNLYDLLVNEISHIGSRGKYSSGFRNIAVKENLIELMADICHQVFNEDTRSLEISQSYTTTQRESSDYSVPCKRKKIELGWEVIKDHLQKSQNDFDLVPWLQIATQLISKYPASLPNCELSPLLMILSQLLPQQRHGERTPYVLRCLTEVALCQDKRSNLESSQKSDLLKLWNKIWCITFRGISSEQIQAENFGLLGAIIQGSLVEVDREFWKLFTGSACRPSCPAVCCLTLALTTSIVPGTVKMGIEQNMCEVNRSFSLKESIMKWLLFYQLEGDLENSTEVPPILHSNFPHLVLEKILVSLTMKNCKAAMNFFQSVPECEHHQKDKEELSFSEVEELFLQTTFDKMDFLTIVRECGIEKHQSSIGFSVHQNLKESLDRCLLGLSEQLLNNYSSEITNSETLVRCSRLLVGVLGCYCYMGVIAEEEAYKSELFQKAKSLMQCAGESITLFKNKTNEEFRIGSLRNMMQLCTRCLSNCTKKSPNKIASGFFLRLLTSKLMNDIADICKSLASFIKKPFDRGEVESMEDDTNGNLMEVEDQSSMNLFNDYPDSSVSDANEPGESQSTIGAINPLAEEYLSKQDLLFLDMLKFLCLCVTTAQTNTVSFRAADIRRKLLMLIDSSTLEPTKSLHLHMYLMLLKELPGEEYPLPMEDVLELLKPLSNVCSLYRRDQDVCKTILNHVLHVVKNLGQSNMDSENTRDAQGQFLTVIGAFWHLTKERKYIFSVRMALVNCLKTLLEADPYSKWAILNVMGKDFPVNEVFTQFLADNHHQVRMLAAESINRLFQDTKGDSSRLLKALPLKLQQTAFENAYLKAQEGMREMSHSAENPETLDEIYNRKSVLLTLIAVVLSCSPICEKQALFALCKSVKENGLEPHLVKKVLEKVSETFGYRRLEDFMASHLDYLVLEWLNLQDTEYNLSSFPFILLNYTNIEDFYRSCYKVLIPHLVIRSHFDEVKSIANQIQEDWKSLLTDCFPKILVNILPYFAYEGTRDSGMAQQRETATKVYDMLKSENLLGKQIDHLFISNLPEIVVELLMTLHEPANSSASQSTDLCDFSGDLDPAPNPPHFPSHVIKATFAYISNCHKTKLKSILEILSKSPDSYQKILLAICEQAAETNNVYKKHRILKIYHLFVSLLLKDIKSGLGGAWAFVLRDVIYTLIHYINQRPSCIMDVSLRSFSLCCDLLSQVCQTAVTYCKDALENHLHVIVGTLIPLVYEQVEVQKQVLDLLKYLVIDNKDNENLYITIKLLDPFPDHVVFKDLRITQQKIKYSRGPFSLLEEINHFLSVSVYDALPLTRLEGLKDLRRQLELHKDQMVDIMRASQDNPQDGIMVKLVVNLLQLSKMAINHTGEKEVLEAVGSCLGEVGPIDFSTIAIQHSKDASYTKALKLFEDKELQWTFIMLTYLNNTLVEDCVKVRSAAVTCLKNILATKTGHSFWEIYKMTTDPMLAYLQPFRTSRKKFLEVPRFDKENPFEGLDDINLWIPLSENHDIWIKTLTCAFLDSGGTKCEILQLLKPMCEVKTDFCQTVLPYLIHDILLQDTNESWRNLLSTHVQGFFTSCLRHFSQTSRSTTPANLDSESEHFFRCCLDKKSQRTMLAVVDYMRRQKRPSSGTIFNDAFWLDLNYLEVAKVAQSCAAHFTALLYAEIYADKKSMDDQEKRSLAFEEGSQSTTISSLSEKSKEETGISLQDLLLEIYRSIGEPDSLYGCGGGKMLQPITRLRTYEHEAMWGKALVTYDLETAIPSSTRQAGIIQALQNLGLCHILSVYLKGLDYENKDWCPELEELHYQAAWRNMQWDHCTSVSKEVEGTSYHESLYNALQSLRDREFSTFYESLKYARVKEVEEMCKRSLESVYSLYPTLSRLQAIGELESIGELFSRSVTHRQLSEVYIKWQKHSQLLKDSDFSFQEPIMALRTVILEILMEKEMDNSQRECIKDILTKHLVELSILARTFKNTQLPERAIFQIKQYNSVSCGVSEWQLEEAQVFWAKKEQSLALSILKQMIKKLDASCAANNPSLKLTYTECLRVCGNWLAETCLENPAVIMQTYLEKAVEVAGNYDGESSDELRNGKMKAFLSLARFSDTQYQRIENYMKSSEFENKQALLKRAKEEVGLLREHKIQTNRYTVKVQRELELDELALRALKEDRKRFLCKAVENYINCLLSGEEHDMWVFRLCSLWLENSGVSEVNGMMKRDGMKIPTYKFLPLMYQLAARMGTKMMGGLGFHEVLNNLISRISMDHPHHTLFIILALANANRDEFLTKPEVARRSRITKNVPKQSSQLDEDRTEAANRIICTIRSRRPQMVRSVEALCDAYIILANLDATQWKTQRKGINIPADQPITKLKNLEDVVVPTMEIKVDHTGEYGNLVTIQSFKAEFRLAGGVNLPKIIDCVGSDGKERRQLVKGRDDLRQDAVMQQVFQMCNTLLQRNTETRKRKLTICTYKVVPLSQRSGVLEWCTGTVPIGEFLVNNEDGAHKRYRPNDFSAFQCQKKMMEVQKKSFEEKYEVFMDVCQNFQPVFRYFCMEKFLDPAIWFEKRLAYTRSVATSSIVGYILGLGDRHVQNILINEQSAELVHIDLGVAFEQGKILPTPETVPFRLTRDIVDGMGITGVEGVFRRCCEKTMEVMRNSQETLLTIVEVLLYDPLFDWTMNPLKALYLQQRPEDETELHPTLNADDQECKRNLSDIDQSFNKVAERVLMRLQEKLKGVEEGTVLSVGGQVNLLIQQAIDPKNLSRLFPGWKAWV

In the case of `CN(C)CCCOc1c(C#N)cc(-c2ccc3ncc4c(c3c2)C2(CCC2)C(=O)N4C)cc1NS(C)(=O)=O` [Example 563, N-(3-Cyano-2-(3-(dimethylamino)propoxy)-5-(3′-methyl-2′-oxo-2′,3′-dihydrospiro[cyclobutane-1,1′-pyrrolo[2,3-c]quinolin]-8′-yl)phenyl)methanesulfonamide], the IC50 under setting [1] lay in the range of 1 to 100 nM.
The same measure, in the same setting: next, `CN1C(=O)C2(CCC2)c2c1cnc1ccc(-c3cnc(N4CC5CNCC5C4)c(NS(C)(=O)=O)c3)cc21` (stereo not shown) [Example 349, N-(2-(Hexahydropyrrolo[3,4-c]pyrrol-2(1H)-yl)-5-(3′-methyl-2′-oxo-2′,3′-dihydrospiro [cyclobutane-1,1′-pyrrolo[2,3-c]quinolin]-8′-yl)pyridin-3-yl) methanesulfonamide formate]: 1 to 100 nM.
Under setting [2], `CN(CCCOc1ncc(-c2ccc3ncc4c(c3c2)C2(CCC2)C(=O)N4C)cc1NS(C)(=O)=O)CC(F)(F)F` [Example 231] showed a half-maximal inhibitory concentration (IC50) of 1 to 100 nM.
As to `CC(=O)N1CCC(N2CC3(C2)C(=O)N(C)c2cnc4cc(F)c(-c5cnc(OCCNC(C)C)c(NS(C)(=O)=O)c5)cc4c23)CC1` [Example 503, N-(5-(1-(1-Acetylpiperidin-4-yl)-7′-fluoro-3′-methyl-2′-oxo-2′,3′-dihydrospiro[azetidine-3,1′-pyrrolo[2,3-c]quinolin]-8′-yl)-2-(2-(isopropylamino)ethoxy)pyridin-3-yl)methanesulfonamide], the concentration for half-maximal inhibition (IC50) under setting [1] is greater than 100 nM.
Same read-out and setting: next, `CC(C)NCCOc1ncc(-c2cc3c(cc2F)ncc2c3[C@]3(C[C@@H](COc4ccccc4)C3)C(=O)N2C)cc1NS(C)(=O)=O` [Example 408, trans-N-(5-(7′-Fluoro-3′-methyl-2′-oxo-3-(phenoxymethyl)-2′,3′-dihydrospiro[cyclobulane-1,1′-pyrrolo[2,3-c]quinolin]-8′-yl)-2-(2-(isopropylamino)ethoxy)pyridin-3-yl)methanesulfonamide]: 1 to 100 nM; `CN(C)CCCOc1ncc(-c2cc(F)c3ncc4c(c3c2)C2(CCC2)C(=O)N4C)cc1NS(=O)(=O)N(C)C` [Example 557, 8′-{6-[3-(Dimethylamino)propoxy]-5-[(dimethylsulfainoyl)amino]pyridin-3-yl}-6′-fluoro-3′-methyl-2′,3′-dihydrospiro [cyclobutane-1,1′-pyrrolo[2,3-c]quinoline]-2′-one]: 1 to 100 nM.
For `CN1C(=O)C2(CCC2)c2c1c(N)nc1ccc(-c3cnc(N4CC(N(C)C)C4)c(NS(C)(=O)=O)c3)cc21` [Example 327, N-(5-(4′-Amino-3′-methyl-2′-oxo-2′,3′-dihydrospiro[cyclobutane-1,1′-pyrrolo[2,3-c]quinolin]-8′-yl)-2-(3-(dimethylamino)azetidin-1-yl)pyridin-3-yl)methanesulfonamide hydrochloride], the IC50 under setting [2] was greater than 100 nM.
Take `CN(C)CCCNc1ncc(-c2ccc3ncc4c(c3c2)C2(CCC2)C(=O)N4C)cc1NS(C)(=O)=O` [Example 259, N-(2-((3-(Dimethylamino)propyl)amino)-5-(3′-methyl-2′-oxo-2′,3′-dihydrospiro[cyclobutane-1,1′-pyrrolo[2,3-c]quinolin]-8′-yl)pyridin-3-yl)methanesulfonamide]: under setting [2], the IC50 was in the range of 1 to 100 nM.
In turn, `CC(C)NCCOc1ncc(-c2cc3c4c(cnc3cc2F)N(C)C(=O)C42CN(C[C@@H](O)CO)C2)cc1NS(C)(=O)=O` [Example 509, (R)-N-(5-(1-(2,3-Dihydroxypropyl)-7′-fluoro-3′-methyl-2′-oxo-2′,3′-dihydrospiro[azetidine-3,1′-pyrrolo[2,3-c]quinolin]-8′-yl)-2-(2-(isopropylamino)ethoxy)pyridin-3-yl)methanesulfonamide] showed an IC50 under setting [1] greater than 100 nM.
Consider `CC(C)NC1CN(c2ncc(-c3cc4c5c(cnc4cc3F)N(C)C(=O)C53CCC3)cc2NS(C)(=O)=O)C1` [Example 328, N-(5-(7′-Fluoro-3′-methyl-2′-oxo-2′,3′-dihydrospiro[cyclobutane-1,1′-pyrrolo[2,3-c]quinolin]-8′-yl)-2-(3-(isopropylamino)azetidin-1-yl)pyridin-3-yl)methanesulfonamide hydrochloride], for which the IC50 under setting [2] lay in the range of 1 to 100 nM.
The same measure, in the same setting: next, `COc1ncc(-c2ccc3ncc4c(c3c2)C2(CC2)C(=O)N4CC2COC2)cc1NS(=O)(=O)c1ccccc1` [Example 17, N-(2-Methoxy-5-(3 (oxetan-3-ylmethyl)-2′-oxo-2′,3′-dihydrospiro[cyclopropane-1,1′-pyrrolo[2,3-c]quinolin]-8′-yl)pyridin-3-yl)benzenesulfonamide]: greater than 100 nM.
Same read-out and setting: the result for `CN(C)CCCOc1ncc(-c2ccc3ncc4c(c3c2)C2(CCC2)C(=O)N4C)cc1NS(=O)(=O)c1cncc(C#N)c1` [Example 174, 5-Cyano-N-(2-(3-(dimethylamino)propoxy)-5-(3′-methyl-2′-oxo-2′,3′-dihydrospiro[cyclobulane-1,1′-pyrrolo[2,3-c]quinolin]-8′-yl)pyridin-3-yl)pyridine-3-sulfonamide hydrochloride] reads 1 to 100 nM.
Regarding `CC(C)NCCOc1ncc(-c2cc3c4c(cnc3cc2F)N(C)C(=O)C42CN(C(=O)c3ccccc3)C2)cc1NS(C)(=O)=O` [Example 516, N-(5-(1-Benzoyl-7′-fluoro-3′-methyl-2′-oxo-2′,3′-dihydrospiro[azetidine-3,1′-pyrrolo[2,3-c]quinolin]-8′-yl)-2-(2-(isopropylamino)ethoxy)pyridin-3-yl)methanesulfonamide], the IC50 under setting [1] was greater than 100 nM.
Take `CCN1CC2(C1)C(=O)N(C)c1cnc3cc(F)c(-c4cnc(OCCNC(C)C)c(NS(C)(=O)=O)c4)cc3c12` [Example 482, N-(5-(1-Ethyl-7-fluoro-3′-methyl-2′-oxo-2′,3′-dihydrospiro[azetidine-3,1′-pyrrolo[2,3-c]quinolin]-8′-yl)-2-(2-(isopropylamino)ethoxy)pyridin-3-yl)methanesulfonamide]: under setting [1], the IC50 is 1 to 100 nM.
On to `CN(C)CCCOc1ncc(-c2ccc3ncc4c(c3c2)N(C)C2(CC2)C(=O)N4)cc1NS(=O)(=O)c1ccccc1` [Example 87, N-(2-(3-(Dimethylamino)propoxy)-5-(1′-methyl-3′-oxo-3′-,4′-dihydro-1′H-spiro[cyclopropane-1,2′-pyrazino[2,3-c]quinolin]-9′-yl)pyridin-3-yl) benzenesulfonamide], for which the IC50 under setting [2] is greater than 100 nM.
On the same count and under the same terms, next, `Cc1oncc1S(=O)(=O)Nc1cc(-c2ccc3ncc4c(c3c2)C2(CC2)C(=O)N4C)cnc1OCCCN(C)C` [Example 99, N-(2-(3-(Dimethylamino)propoxy)-5-(3′-methyl-2′-oxo-2′,3′-dihydrospiro [cyclopropane-1,1′-pyrrolo[2,3-c]quinolin]-8′-yl)pyridin-3-yl)-5-methylisoxazole-4-sulfonamide]: greater than 100 nM.
Under setting [1], `CC(C)NCCOc1ncc(-c2cc3c(cc2F)ncc2c3[C@]3(C[C@H](N4CCCC4)C3)C(=O)N2C)cc1NS(C)(=O)=O` [Example 467, cis-N-(5-(7′-Fluoro-3′-methyl-2′-oxo-3-(pyrrolidin-1-yl)-2′,3′-dihydrospiro[cyclobutane-1,1′-pyrrolo[2,3-c]quinolin]-8′-yl)-2-(2-(isopropylamino)ethoxy)pyridin-3-yl)methanesulfonamide] had an IC50 of 1 to 100 nM.
The molecule `CC(C)N1C(=O)C2(CC2)c2c1cnc1ccc(-c3cnc(OCCCN(C)C)c(NS(=O)(=O)c4ccccc4)c3)cc21` [Example 31, N-(2-(3-(Dimethylamino)propoxy)-5-(3′-isopropyl-2′-oxo-2′,3′-dihydrospiro [cyclopropane-1,1′-pyrrolo[2,3-c]quinolin]-8′-yl)pyridin-3-yl) benzenesulfonamide] came in with an IC50 under setting [2] greater than 100 nM.
On the same count and under the same terms, the result for `COc1ncc(-c2ccc3ncc4c(c3c2)C2(CC2)C(=O)N4C)cc1NS(=O)(=O)c1cccc(C(C)O)c1` (stereo not shown) [Example 18, 3-(1-Hydroxyethyl)-N-(2-methoxy-5-(3′-methyl-2′-oxo-2′,3′-dihydrospiro[cyclopropane-1,1′-pyrrolo[2,3-c]quinolin]-8′-yl)pyridin-3-yl)benzenesulfonamide] reads 1 to 100 nM; that for `CN1C(=O)C2(CCC2)c2c1cnc1ccc(-c3cnc(OCC(CO)N4CCCCC4)c(NS(C)(=O)=O)c3)cc21` (stereo not shown) [Example 284, N-(2-(3-Hydroxy-2-(piperidin-1-yl)propoxy)-5-(3′-methyl-2′-oxo-2′,3′-dihydrospiro[cyclobutane-1,1′-pyrrolo[2,3-c]quinolin]-8′-yl)pyridin-3-yl)methanesulfonamide], greater than 100 nM; that for `CN(C)CCCOc1ncc(-c2ccc3ncc4c(c3c2)C2(CCC2)C(=O)N4C)cc1NS(=O)(=O)c1ccc(OC(F)(F)F)cc1` [Example 143, N-(2-(3-(Dimethylamino)propoxy)-5-(3′-methyl-2′-oxo-2′,3′-dihydrospiro[cyclobulane-1,1′-pyrrolo[2,3-c]quinolin]-8′-yl)pyridin-3-yl)-4-(trifluoromethoxy)benzenesulfonamide hydrochloride], 1 to 100 nM.
Under setting [2], `CN(C)CCCOc1ncc(-c2ccc3ncc4c(c3c2)C2(CCC2)C(=O)N4C)cc1S(=O)(=O)N(C)C` [Example 234, 2-(3-(Dimethylamino)propoxy)-N,N-dimethyl-5-(3′-methyl-2′-oxo-2′,3′-dihydrospiro[cyclobutane-1,1′-pyrrolo[2,3-c]quinolin]-8′-yl)pyridine-3-sulfonamide] displayed an IC50 of 1 to 100 nM.
On the same count and under the same terms, next, `CN1C(=O)C2(CC2)c2c1cnc1ccc(-c3cncnc3)cc21` [Example 51, 3′-Methyl-8′-(pyrimidin-5-yl)spiro[cyclopropane-1,1′-pyrrolo [2,3-c]quinolin]-2′(3′-H)-one]: greater than 100 nM.
The same measure, in the same setting: the result for `COc1ccc2cc(-c3ccc4ncc5c(c4c3)C3(CC3)C(=O)N5C)ccc2n1` [Example 44, 8′-(2-Methoxyquinolin-6-yl)-3′-methylspiro [cyclopropane-1,1′-pyrrolo[2,3-c]quinolin]-2′(3′-H)-one] reads greater than 100 nM; that for `CN1C(=O)C2(CCC2)c2c1cnc1ccc(-c3cnc(OCC(F)(F)CN4CCCCC4)c(NS(C)(=O)=O)c3)cc21` [Example 256, N-(2-(2,2-Difluoro-3-(piperidin-1-yl)propoxy)-5-(3′-methyl-2′-oxo-2′,3′-dihydrospiro[cyclobutane-1,1′-pyrrolo[2,3-c]quinolin]-8′-yl)pyridin-3-yl)methanesulfonamide], greater than 100 nM.
